Like-named read-outs stand apart in the source and are kept apart here.
Key:
[1] = target: T1, NicA2 (Pseudomonas putida, UniProt F8G0P2); assay type: biochemical, Pseudomonas putida S16; conditions: for effect on the response to nicotine: 200 μM nicotine solution added
T1 construct: poly-histidine; made in house; host or cells: E. coli BL21 (DE3)
Method: (§1) Chronoamperometric responses were recorded overtime, with a potential −0.2 V (versus Ag/AgCl). At the beginning of the experiment, 30 μL 1×DPBS was added to the biosensor, followed by an addition of 30 μL nicotine solution at predefined time point. To evaluate the selectivity of the sensor chronoamperometric responses to nicotine were measured in the presence of the common interferents at relevant physiological concentrations in sweat (see e.g., Table 4). Addition of 30 μL 200 μM nicotine solution to 30 μL mixture was performed at a predefined time point and the current was recorded over time. Similar experiments were performed to evaluate the selectivity of the sensor to cotinine. Current was recorded where 30 μL 200 μM nicotine solution was added to 30 μL cotinine solutions.
(§2) Chronoamperometric responses were recorded at −0.2 V vs. a Ag/AgCl reference electrode.

[2] = target: T2, NicA2 (Pseudomonas putida, UniProt F8G0P2, N462Y/W427Y); assay type: biochemical, Pseudomonas putida S16; conditions: FIG. 17C (N462Y/W427Y mutant), FIG. 10D
T2 construct: poly-histidine; made in house; host or cells: E. coli BL21 (DE3)
Method: as §1, §2

[3] = Activity of NicA2 mutants versus wild type NicA2; assay type: biochemical; conditions: compared to wild type and other NicA2 mutants
Source text: In some embodiments, the size of the working electrode is in the range of 5-8 π mm^2, or 8-10π mm^2, or 10-12π mm^2, or 12-15π mm^2, or greater than 15π mm^2.

T1 sequence (F8G0P2 39-482): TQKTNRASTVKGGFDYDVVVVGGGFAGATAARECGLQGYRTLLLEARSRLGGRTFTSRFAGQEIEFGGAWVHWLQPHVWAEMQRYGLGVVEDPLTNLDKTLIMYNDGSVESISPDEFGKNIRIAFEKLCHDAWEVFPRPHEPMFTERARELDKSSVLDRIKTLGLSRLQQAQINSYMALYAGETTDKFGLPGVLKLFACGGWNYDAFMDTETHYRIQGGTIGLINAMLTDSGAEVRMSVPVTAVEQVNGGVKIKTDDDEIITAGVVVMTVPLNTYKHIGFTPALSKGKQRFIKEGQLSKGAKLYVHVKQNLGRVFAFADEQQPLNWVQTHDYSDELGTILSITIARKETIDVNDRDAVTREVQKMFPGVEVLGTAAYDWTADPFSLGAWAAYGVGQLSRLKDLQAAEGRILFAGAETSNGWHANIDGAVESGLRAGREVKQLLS

Molecule: CN1C(=O)CC[C@H]1c1cccnc1 [cotinine]
- effect on the response to nicotine ([1]; chronoamperometry): minimally affected the nicotine response
- effect on the response to nicotine ([1]; chronoamperometry, listed as Cotinine): minimal effect upon the nicotine response
- current produced by NicA2 with the analyte [2]: did not produce a current

Molecule: c1cncc(C2=NCCC2)c1 [myosmine]
- reduction of signal ([1]; added during a chronoamperometric experiment with nicotine): approximately 50%
- response from the substance alone ([1]; chronoamperometry, no nicotine): Minimal responses

B1: N462Y/W427Y: mutant NicA2 enzyme, SEQ ID NO: 4 (protein)
chain: MSDKTKTNEGFSRRSFIGSAAVVTAGVAGLGAIDAASATQKTNRASTVKGGFDYDVVVVGGGFAGATAARECGLQGYRTLLLEARSRLGGRTFTSRFAGQEIEFGGAWVHWLQPHVWAEMQRYGLGVVEDPLTNLDKTLIMYNDGSVESISPDEFGKNIRIAFEKLCHDAWEVFPRPHEPMFTERARELDKSSVLDRIKTLGLSRLQQAQINSYMALYAGETTDKFGLPGVLKLFACGGWNYDAFMDTETHYRIQGGTIGLINAMLTDSGAEVRMSVPVTAVEQVNGGVKIKTDDDEIITAGVVVMTVPLNTYKHIGFTPALSKGKQRFIKEGQLSKGAKLYVHVKQNLGRVFAFADEQQPLNWVQTHDYSDELGTILSITIARKETIDVNDRDAVTREVQKMFPGVEVLGTAAYDWTADPFSLGAYAAYGVGQLSRLKDLQAAEGRILFAGAETSNGWHAYIDGAVESGLRAGREVKQLLSLEHHHHHH
- oxidation activity of NicA2 mutant [3]: increased oxidative activity
